According to BindingDB's records for doi:10.1021/acs.jmedchem.9b01152 (Universidad De Navarra, 2020):

Biological target: Histone deacetylase 8 (Homo sapiens) (UniProt Q9BY41)
Test: Inhibition of human recombinant HDAC8 using RHKAcKAc-AMC substrate by fluorescence based assay

Sequence of Histone deacetylase 8 (Homo sapiens) (Q9BY41 whole entry, looked up): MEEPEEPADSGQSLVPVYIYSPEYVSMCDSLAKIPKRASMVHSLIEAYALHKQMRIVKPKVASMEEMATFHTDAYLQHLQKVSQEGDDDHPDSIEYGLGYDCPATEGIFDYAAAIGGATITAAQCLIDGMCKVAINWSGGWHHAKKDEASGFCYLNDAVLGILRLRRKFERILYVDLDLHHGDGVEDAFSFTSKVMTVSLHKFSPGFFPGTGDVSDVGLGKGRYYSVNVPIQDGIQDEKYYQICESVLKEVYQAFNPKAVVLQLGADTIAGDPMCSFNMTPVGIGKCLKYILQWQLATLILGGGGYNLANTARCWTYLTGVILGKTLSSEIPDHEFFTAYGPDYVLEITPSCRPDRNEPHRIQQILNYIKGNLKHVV

O=c1c2ccccc2[se]n1-c1ccccc1 [2-Phenyl-benzo[d]isoselenazol-3-one]
IC50: 1.2 µM
